For two compounds, IC50 and inhibition results are on record in patent US20130041005A1, “PHARMACEUTICAL COMPOSITIONS COMPRISING NEUROPILIN INHIBITORS, AND THEIR USE FOR THE PREVENTION AND/OR TREATMENT OF ANGIOGENIC DISORDERS AND CANCERS” (TRAGEX PHARMA, priority 2011, published 2013).

Type in all cases: cell-based
The test system of one experiment is RAJI. The experiment in a line: WST-1 proliferation assay, RAJI. The conditions noted are these: Homo sapiens; Burkitt's lymphoma RAJI; read-out: Anti-proliferative activity IC50 (μM) ± SD. On the procedure:
(§1) All the cancer cell lines were maintained in cultured in DMEM GlutaMAX™ (GIBCO Invitrogen, France, cat no 31966047) enhanced with 10% foetal bovine serum (GIBCO Invitrogen, France, cat no 10270-106) and 1% penicillin G/streptomycin (GIBCO Invitrogen, France, cat no 15140-122). Only Panc-10.5 cells were cultivated in RPMI 1640 medium (Gibco) supplemented with 2 mM L-glutamine, 1.5 g/L sodium bicarbonate, 4.5 g/L glucose, 10 mM HEPES, 1 mM sodium pyruvate, 10 Units/ml human insulin, […] (SVF): 15% (75 ml in 500 ml of medium).
(§2) Cells were grown as subconfluent monolayer and cultured in 75 cm^2 flasks at 37° C., 5% CO2 in a humidified atmosphere, and medium was changed every two days. […]
(§3) The cell proliferation WST-1 assay is a colorimetric assay for the quantification of cell proliferation and viability, based on the enzymatic cleavage of the tetrazolium salt WST-1 added to the culture medium, to a water soluble colored formazan dye, detected by absorbance at 450 nm, by mitochondrial succinate-tetrazolium reductase in viable cells. […]
(§4) After an incubation period of 72 h, at day 4, were prepared the 19 ml medium with reagent WST-1 1 ml ([…]). […] The cells were incubated at 37° C. in a humidified atmosphere of 5% CO2 for 1 h 30 and the absorbance at 450-655 nm was measured by Microplate Manager 5.2 (Bio-Rad).
In general terms: Tetrazolium assays rely on reduction of a dye to a coloured formazan, in cell work by metabolically active cells.

The test system of another experiment is HCT-116. The experiment in a line: WST-1 proliferation assay, HCT-116. The conditions noted are these: Homo sapiens; for IC50: Colon HCT-116, 72 h, read-out: Anti-proliferative activity IC50 (μM) ± SD; for inhibition at 0.1 µM: HCT-116, 0.1 μM; for inhibition at 0.5 µM: HCT-116, 0.5 μM; for inhibition at 1 µM: HCT-116, 1 μM.
Source text: (§5) Several cancer cell lines were used: breast cancer cells (MDA-MB-231 (ATTCC® Number HTB-26™), MDA-MB-436 (ATTCC® Number HTB-130™), MDA-MB-438, BT-474 (ATTCC® Number HTB-20™)); cervical cancer cells (HeLa (ATTCC® Number CCL-2™)); colon cancer cells (HCT-116 (ATTCC® Number CCL-247™) and HT-29 (ATTCC® Number HTB-38™)); osteosarcoma cells (U2OS (ATTCC® Number HTB-96™)); pancreas cancer cells (MIA PaCa-2 (ATTCC® Number CRL-1420™) and Panc-10.5 (ATTCC® Number CRL-2547™)); prostate cancer cells (PC-3 (ATTCC® Number CRL-1435™) and LNCaP (ATTCC® Number CRL-1740™)); brain cancer cells (U87 glioblastoma (ATTCC® Number HTB-14™) and SH-SYSY neuroblastoma (ATTCC® Number CRL-2266™)).
as §1
(§6) Cells were grown as subconfluent monolayer and cultured in 75 cm^2 flasks at 37° C., 5% CO2 in a humidified atmosphere, and medium was changed every two days. Only cells from passages 2-6 were used for the experiments.
(§7) After observation of cells under the microscope, old media were removed and the adherent cells washed gently twice with PBS (Phosphate Buffer Saline, —Ca^2+, —Mg^2+, Lonza cat no: 17-512F/12). All cells were detached with 3 ml of trypsin/EDTA (chelator of calcium and magnesium ions) (Lonza), incubated for 5 min at 37° C., and examined using a microscope to ensure that the cells were detached and floating. Then, 3 ml TNS (Trypsin Neutralizing Solution, Lonza, France, cat no CC-5002) or of culture medium were added to inactivate the trypsin, and the cell suspension was transferred in a falcon and centrifuged for 7 min at 1400 rpm. The supernatant was removed and the cell pellet resuspended in […] of culture medium. 50 μl of this solution were transferred in 20 μl of isotonic solution and the cells were counted by count cellular (Beckman Coulter). At day 0, 200 μl of cellular suspension (3.10^3 cells/well for the HUVEC cells, breast cancer cells (MDA-MB-231 1.10^4 cells/well, MDA-MB-436 1.10^4 cells/well, MDA-MB-438 2.10^4 cells/well, BT-474 2.5.10^4 cells/well); cervical cancer cells (HeLa 5.000 cells/well); colon cancer cells (HCT-116 5.10^3 cells/well, HCT-29 1.1.10^4 cells/well); osteosarcoma cells (U2OS 8.10^3 cells/well); pancreas cancer cells (MIA PaCa-2 5.10^3 cells/well, Panc-10.5 1.5.10^4 cells/well); prostate cancer cells (PC-3 4.10^3 cells/well, LNCaP 2.10^4 cells/well); brain cancer cells (U87 5.10^3 cells/well, SH-SYSY 8.10^4 cells/well)) were then plated on 96 well plates and incubated at 37° C. in a humidified atmosphere of 5% CO2 for 24 h.
(§8) At day 1, the compounds 1 or 2 of the invention were added at increasing concentrations (0.1-10 μM) in the wells and plates were incubated at 37° C. in a humidified atmosphere of 5% CO2 for 72 h.
(§9) The cell proliferation WST-1 assay is a colorimetric assay for the quantification of cell proliferation and viability, based on the enzymatic cleavage of the tetrazolium salt WST-1 added to the culture medium, to a water soluble colored formazan dye, detected by absorbance at 450 nm, by mitochondrial succinate-tetrazolium reductase in viable cells. An augmentation in enzyme activity will then lead to an increase in the amount of formazan dye formed, which directly correlates to the number of metabolically active cells in the culture.
(§10) After an incubation period of 72 h, at day 4, were prepared the 19 ml medium with reagent WST-1 1 ml ([…]). The medium was removed from the 96 microplate and 200 μl of solution WST-1/medium were added for each well. […]

A further experiment concerns A549. Description: WST-1 proliferation assay, A549. Conditions: Homo sapiens; Lung A549; read-out: Anti-proliferative activity IC50 (μM) ± SD. The protocol:
as §1, §2, §3, §4

For another experiment, the system named is PC-3. The experiment in a line: WST-1 proliferation assay, PC-3. Conditions: Homo sapiens; PC-3, 0.05 μM.
The subject of another experiment is MDA-MB-436. Description: WST-1 proliferation assay, MDA-MB-436. Conditions: Homo sapiens; Breast MDA-MB-436, 72 h; read-out: Anti-proliferative activity IC50 (μM) ± SD.
Source text: as §5, with “CRL-2266™)). […]” for “CRL-2266™)).”
After observation of cells under the microscope, old media were removed and the adherent cells washed gently twice with PBS (Phosphate Buffer Saline, —Ca^2+, —Mg^2+, Lonza cat no: 17-512F/12). […] 50 μl of this solution were transferred in 20 μl of isotonic solution and the cells were counted by count cellular (Beckman Coulter). […]
as §3

The next experiment has as its system Panc-10.5. The experiment in a line: WST-1 proliferation assay, Panc-10.5. Conditions: Homo sapiens; for inhibition at 0.1 µM: PANC - 10.5, 0.1 μM; for inhibition at 0.5 µM: PANC - 10.5, 0.5 μM; for inhibition at 1 µM: PANC - 10.5, 1 μM; for IC50: Pancreas Panc-10.5, 72 h, read-out: Anti-proliferative activity IC50 (μM) ± SD.
Source text: as §5, §1, §6, §7, §8, §9, §10

A further experiment deals with HeLa. The experiment in a line: WST-1 proliferation assay, HeLa. Conditions: Homo sapiens.
The subject of a further experiment is U87 glioblastoma. The experiment in a line: WST-1 proliferation assay, U87. Conditions: Homo sapiens.
For a further experiment, the system named is U266. Description: WST-1 proliferation assay, U266. Conditions: Homo sapiens, U-266; Myeloma U266; read-out: Anti-proliferative activity IC50 (μM) ± SD. The protocol:
as §1, §2, §3, §4

The test system of another experiment is DAUDI. Description: WST-1 proliferation assay, DAUDI. Conditions: Homo sapiens; Burkitt's lymphoma DAUDI; read-out: Anti-proliferative activity IC50 (μM) ± SD. The protocol: as §1, §2, §3, §4

As for `Cc1ccc(-c2nc3ccccc3[nH]2)cc1NC(=S)NC(=O)c1ccc2c(c1)OCCO2` [Compound 1, N-[5-(1H-benzimidazol-2-yl)-2-methylphenyl]-N′-(2,3-dihydro-1,4-benzodioxin-6-ylcarbonyl)thiourea], the IC50 (in general, the concentration needed to halve the response being measured) amounted to 1.5 ± 0.01 µM in the experiment with RAJI; 1 µM in the experiment on HCT-116; 0.4 ± 0.04 µM with A549; 1.5 ± 0.02 µM with MDA-MB-436; 1 µM in the experiment with Panc-10.5; 2 µM with U266. Moreover, in the experiment on DAUDI, the IC50 was found to be 1 µM. Moreover, the results for the inhibition at 0.1 µM in the experiment with HCT-116 and in the experiment with Panc-10.5 were 7% and 21%, respectively. The figures for the inhibition at 0.5 µM with HCT-116 and in the experiment with Panc-10.5 were 51% and 44%, respectively. Moreover, the inhibition at 1 µM with HCT-116 and in the experiment with Panc-10.5 was 56% throughout. Besides, the figures for the inhibition at 0.05 µM in the experiment on PC-3, in the experiment on HeLa and with U87 glioblastoma were 0%, 4% and 0%, respectively.
Turning to `O=C(NC(=S)Nc1cccc(-c2nc3ccccc3[nH]2)c1)c1ccc2c(c1)OCCO2` [Compound 2, N-[3-(1H-benzimidazol-2-yl)phenyl]-N′-(2,3-dihydro-1,4-benzodioxin-6-ylcarbonyl)thiourea], the IC50 in the experiment with RAJI amounted to 1.3 ± 0.04 µM; with HCT-116 it was 1 µM; with A549, 0.1 ± 0.04 µM; with MDA-MB-436, 2.3 ± 0.03 µM; with Panc-10.5 it was 0.1 ± 0.09 µM; in the experiment on U266, 1.5 ± 0.04 µM. In the experiment on DAUDI, the IC50 is 0.5 ± 0.02 µM. The inhibition (commonly the percentage by which the read-out fell short of the control) at 0.1 µM was found to be 49% in the experiment with HCT-116 and 51% with Panc-10.5. The inhibition at 0.5 µM in the experiment on HCT-116 was found to be 58%; in the experiment with Panc-10.5, 62%. Also, the inhibition at 1 µM with HCT-116 came to 60%; in the experiment with Panc-10.5, 65%. Besides, the inhibition at 0.05 µM is 0% in the experiment with PC-3, 49% in the experiment with HeLa and 19% with U87 glioblastoma.
